Test results taken from patent US20230085307A1, “PYRIDAZINONE COMPOUND AND HERBICIDE” (NISSAN CHEMICAL CORPORATION, priority 2019, published 2023).

How the values were obtained:
persian speedwell = test: Test Example 5: herbicidal effect by foliage application, plastic box (Table 20, symbol R); format: in vivo, Persian speedwell (Veronica persica); details: foliage application, 320 g/ha, three weeks after application
Outline: (§1)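 Foliar spray test: emulsion formulation diluted in water to a set application rate, sprayed onto 14-day-old plants raised in diluvial soil at 25° C to 30° C under glass. Both herbicidal effect and crop effect rated visually three weeks later.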

lambsquarters [1] = test: Test Example 4: herbicidal effect by soil treatment (Table 19, symbol O); format: in vivo, lambsquarters (Chenopodium album); details: amount of applied herbicide 320 g/ha
Outline: (§2)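 Herbicidal effect was rated 3 weeks after treatment, using the scoring criteria of an earlier test. The compound, formulated as an emulsion and diluted in water to a set herbicide amount, had been sprayed uniformly on soil over freshly sown seeds. Growth took place in a greenhouse at 25° C. to 30° C.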

lambsquarters [2] = test: Test Example 5: herbicidal effect by foliage application, plastic box (Table 20, symbol O); format: in vivo, lambsquarters (Chenopodium album); details: foliage application, 320 g/ha, three weeks after application
Outline: as §1

blackgrass = test: Test Example 4: herbicidal effect by soil treatment (Table 19, symbol J); format: in vivo, blackgrass (Alopecurus myosuroides); details: amount of applied herbicide 320 g/ha
Outline: as §2

false cleavers [3] = test: Test Example 5: herbicidal effect by foliage application, plastic box (Table 20, symbol Q); format: in vivo, false cleavers (Galium spurium); details: foliage application, 320 g/ha, three weeks after application
Outline: as §1

Japanese bulrush = test: Test Example 2: herbicidal activity, application during weed generation under submerged conditions (Table 17, symbol B); format: in vivo, Japanese bulrush (Schoenoplectus juncoides); details: AAH 320 g/ha; application during weed generation, submerged conditions
Outline: (§3)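 Herbicide emulsion, diluted with water to the chosen amount, is applied onto 4 cm floodwater over alluvial soil where the weeds were co-sown and raised at 25–30° C. Application timing: 1–2 leaves. Assessment: three weeks afterwards.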

Chinese sprangletop = test: Test Example 3: herbicidal effect by foliage application, Wagner pot (Table 18, symbol D); format: in vivo, chinese sprangletop (Leptochloa chinensis); details: for herbicidal effect on D: Chinese sprangletop: amount of applied herbicide 320 g/ha; for herbicidal effect on Chinese sprangletop (D): 320 g/ha
Outline: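 Plants were sown in alluvial soil held under 0.1–0.5 cm standing water and grown 14 days in a greenhouse at 25–30 °C. An emulsifiable formulation, water-diluted to the set dose, was then sprayed onto the foliage, and effects were scored three weeks later using previously defined criteria.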

late watergrass = test: Test Example 2: herbicidal activity, application during weed generation under submerged conditions (Table 17, symbol A); format: in vivo, late watergrass (Echinochloa oryzicola); details: AAH 320 g/ha; application during weed generation, submerged conditions
Outline: as §3

barnyard grass = test: Test Example 4: herbicidal effect by soil treatment (Table 19, symbol H); format: in vivo, barnyard grass (Echinochloa crus-galli); details: amount of applied herbicide 320 g/ha
Outline: as §2

wild oat = test: Test Example 4: herbicidal effect by soil treatment (Table 19, symbol I); format: in vivo, wild oat (Avena fatua); details: amount of applied herbicide 320 g/ha
Outline: as §2

Italian ryegrass = test: Test Example 5: herbicidal effect by foliage application, plastic box (Table 20, symbol K); format: in vivo, Italian ryegrass (Lolium multiflorum); details: foliage application, 320 g/ha, three weeks after application
Outline: as §1

oval-leafed pondweed [4] = test: Test Example 2: herbicidal activity, application during weed generation under submerged conditions (Table 17, symbol C); format: in vivo, oval-leafed pondweed (Monochoria vaginalis); details: AAH 320 g/ha; application during weed generation, submerged conditions
Outline: as §3

redroot pigweed = test: Test Example 4: herbicidal effect by soil treatment (Table 19, symbol N); format: in vivo, redroot pigweed (Amaranthus retroflexus); details: amount of applied herbicide 320 g/ha
Outline: as §2

oval-leafed pondweed [5] = test: Test Example 1: herbicidal activity, application before weed generation under submerged conditions (Table 16, symbol C); format: in vivo, oval-leafed pondweed (Monochoria vaginalis); details: amount of applied herbicide 320 g/ha
Outline: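 Emulsion formulation, water-diluted to set dose, was put onto the flooded surface (4 cm depth, alluvial soil) the same day weeds were sown and 2.5-leaf rice transplanted. After 3 weeks at 25-30 °C under glass, each species was rated 0 (≤5% kill) to 5 (≥90% kill).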

chickweed [6] = test: Test Example 4: herbicidal effect by soil treatment (Table 19, symbol P); format: in vivo, common chickweed (Stellaria media); details: amount of applied herbicide 320 g/ha
Outline: as §2

chickweed [7] = test: Test Example 5: herbicidal effect by foliage application, plastic box (Table 20, symbol P); format: in vivo, common chickweed (Stellaria media); details: foliage application, 320 g/ha, three weeks after application
Outline: as §1

false cleavers [8] = test: Test Example 4: herbicidal effect by soil treatment (Table 19, symbol Q); format: in vivo, false cleavers (Galium spurium); details: amount of applied herbicide 320 g/ha
Outline: as §2

| Structure (SMILES) | R: persian speedwell, herbicidal effect grade (persian speedwell) | herbicidal effect, O: lambsquarters (lambsquarters [1]) | O: lambsquarters, herbicidal effect grade (lambsquarters [2]) | herbicidal effect, J: blackgrass (blackgrass) | Q: false cleavers, herbicidal effect grade (false cleavers [3]) | herbicidal effect rating, B: Japanese bulrush (Japanese bulrush) | herbicidal effect on D: Chinese sprangletop (Chinese sprangletop) | herbicidal effect rating, A: late watergrass (late watergrass) | herbicidal effect, H: barnyard grass (barnyard grass) | herbicidal effect, I: wild oat (wild oat) | K: Italian ryegrass, herbicidal effect grade (Italian ryegrass) | herbicidal effect rating, C: oval-leafed pondweed (oval-leafed pondweed [4]) | herbicidal effect, N: redroot pigweed (redroot pigweed) | Herbicidal effect, C: oval-leafed pondweed (oval-leafed pondweed [5]) | herbicidal effect, P: chickweed (chickweed [6]) | P: chickweed, herbicidal effect grade (chickweed [7]) | herbicidal effect, Q: false cleavers (false cleavers [8]) | O: lambsquarters, herbicidal effect grade (lambsquarters [1]) | J: blackgrass, herbicidal effect grade (blackgrass) | herbicidal effect on Chinese sprangletop (D) (Chinese sprangletop) | other results |
| --- | --- | --- | --- | --- | --- | --- | --- | --- | --- | --- | --- | --- | --- | --- | --- | --- | --- | --- | --- | --- | --- |
| Cc1nn(C)c(=O)c(-c2c(-c3ccc4c(c3)OCCO4)sc3cc(F)ccc23)c1O [3-013] | 5 (Herbicidal rate of 90% or more (almost completely withered)) | 5 (Herbicidal rate of 90% or more (almost completely withered)) | 5 (Herbicidal rate of 90% or more (almost completely withered)) | 0 (Herbicidal rate of 5% or less (almost no effect)) | 5 (Herbicidal rate of 90% or more (almost completely withered)) | 0 (Herbicidal rate of 5% or less (almost no effect)) | 4 (Herbicidal rate of 70% or more and less than 90%) | 0 (Herbicidal rate of 5% or less (almost no effect)) | 5 (Herbicidal rate of 90% or more (almost completely withered)) | 0 (Herbicidal rate of 5% or less (almost no effect)) | 1 (Herbicidal rate of 5% or more and less than 20%) | 3 (Herbicidal rate of 40% or more and less than 70%) | 4 (Herbicidal rate of 70% or more and less than 90%) | 2 (Herbicidal rate of 20% or more and less than 40%) | 4 (Herbicidal rate of 70% or more and less than 90%) | 5 (Herbicidal rate of 90% or more (almost completely withered)) | 4 (Herbicidal rate of 70% or more and less than 90%) | – | – | – | – |
| CCCC(=O)Oc1c(C)nn(C)c(=O)c1-c1c(-c2ccc3c(c2)OCCO3)sc2cc(F)ccc12 [3-014] | 5 (Herbicidal rate of 90% or more (almost completely withered)) | 4 (Herbicidal rate of 70% or more and less than 90%) | 5 (Herbicidal rate of 90% or more (almost completely withered)) | 0 (Herbicidal rate of 5% or less (almost no effect)) | 4 (Herbicidal rate of 70% or more and less than 90%) | 0 (Herbicidal rate of 5% or less (almost no effect)) | 0 (Herbicidal rate of 5% or less (almost no effect)) | 3 (Herbicidal rate of 40% or more and less than 70%) | 0 (Herbicidal rate of 5% or less (almost no effect)) | 0 (Herbicidal rate of 5% or less (almost no effect)) | 1 (Herbicidal rate of 5% or more and less than 20%) | 5 (Herbicidal rate of 90% or more (almost completely withered)) | 3 (Herbicidal rate of 40% or more and less than 70%) | 5 (Herbicidal rate of 90% or more (almost completely withered)) | 4 (Herbicidal rate of 70% or more and less than 90%) | 5 (Herbicidal rate of 90% or more (almost completely withered)) | 2 (Herbicidal rate of 20% or more and less than 40%) | – | – | – | – |
| CCOc1ccccc1-c1sc2cc(C)ccc2c1-c1c(O)c(C)nn(C)c1=O [3-053] | 5 (Herbicidal rate of 90% or more (almost completely withered)) | – | 5 (Herbicidal rate of 90% or more (almost completely withered)) | – | 5 (Herbicidal rate of 90% or more (almost completely withered)) | 3 (Herbicidal rate of 40% or more and less than 70%) | – | 3 (Herbicidal rate of 40% or more and less than 70%) | – | – | 5 (Herbicidal rate of 90% or more (almost completely withered)) | 3 (Herbicidal rate of 40% or more and less than 70%) | – | 4 (Herbicidal rate of 70% or more and less than 90%) | – | 5 (Herbicidal rate of 90% or more (almost completely withered)) | – | 4 (Herbicidal rate of 70% or more and less than 90%) | 3 (Herbicidal rate of 40% or more and less than 70%) | 4 (Herbicidal rate of 70% or more and less than 90%) | H: barnyard grass, herbicidal effect grade (barnyard grass): 0 (Herbicidal rate of 5% or less (almost no effect)); I: wild oat, herbicidal effect grade (wild oat): 4 (Herbicidal rate of 70% or more and less than 90%); N: redroot pigweed, herbicidal effect grade (redroot pigweed): 3 (Herbicidal rate of 40% or more and less than 70%); P: chickweed, herbicidal effect grade (chickweed [6]): 4 (Herbicidal rate of 70% or more and less than 90%); Q: false cleavers, herbicidal effect grade (false cleavers [8]): 5 (Herbicidal rate of 90% or more (almost completely withered)) |
| CCOc1cc(F)ccc1-c1sc2cc(C)ccc2c1-c1c(O)c(C)nn(C)c1=O [3-057] | 5 (Herbicidal rate of 90% or more (almost completely withered)) | – | 5 (Herbicidal rate of 90% or more (almost completely withered)) | – | 5 (Herbicidal rate of 90% or more (almost completely withered)) | 4 (Herbicidal rate of 70% or more and less than 90%) | – | 4 (Herbicidal rate of 70% or more and less than 90%) | – | – | 5 (Herbicidal rate of 90% or more (almost completely withered)) | 3 (Herbicidal rate of 40% or more and less than 70%) | – | 5 (Herbicidal rate of 90% or more (almost completely withered)) | – | 5 (Herbicidal rate of 90% or more (almost completely withered)) | – | 5 (Herbicidal rate of 90% or more (almost completely withered)) | 4 (Herbicidal rate of 70% or more and less than 90%) | 3 (Herbicidal rate of 40% or more and less than 70%) | H: barnyard grass, herbicidal effect grade (barnyard grass): 4 (Herbicidal rate of 70% or more and less than 90%); I: wild oat, herbicidal effect grade (wild oat): 3 (Herbicidal rate of 40% or more and less than 70%); N: redroot pigweed, herbicidal effect grade (redroot pigweed): 5 (Herbicidal rate of 90% or more (almost completely withered)); P: chickweed, herbicidal effect grade (chickweed [6]): 5 (Herbicidal rate of 90% or more (almost completely withered)); Q: false cleavers, herbicidal effect grade (false cleavers [8]): 3 (Herbicidal rate of 40% or more and less than 70%) |
